Like-named read-outs stand apart in the source and are kept apart here.

The test system of experiment [1] is astrocytes. The experiment is described as follows: Extracellular lactate quantification. Type of experiment: cell-based, mouse. The conditions noted are these: for Score_LACTATE: Appendix I, secondary screening, dosage of extracellular lactate; for EC50: Mus musculus, Astrocyte. In short, it runs like this:
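Primary cortical astrocytes from 1–2-day-old OF1 mouse pups, used at DIV14–17, stimulated 90 min at 37 °C in D5030 with 5 mM glucose, compounds 0–100 μM. Extracellular L-lactate measured enzymatically (LDH/NAD, pH 10, 1 h 37 °C) by NADH fluorescence (ex 340/em 450) against L-lactate standard curve.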

Experiment [2] has as its system primary astrocytes. Description: High throughput screening for lactate secretion: acidification of extracellular medium (SNARF5). The class given is cell-based, mouse. Also on record: key to Score / HTS Score (lactate) / HTS Score (SNARF5) / Score_SNARF: fraction of positive control activity (positive control = 100%). The note with it: for Score_SNARF: primary screening confirmation (SNARF5); for Score / HTS Score (SNARF5) / Emax at 10 µM: 10 uM, 90 min; for Emax at 10 µM: Mus musculus, Astrocyte, 1.5 h. In short, it runs like this: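 Mouse cortical astrocytes (DIV17) stimulated 90 min at 10 uM compound (1% DMSO) in low-bicarbonate DMEM, 5 mM glucose, with SNARF-5F; extracellular acidification read as 630/580 nm emission ratio (exc 480 nm). Duplicates; score as % of CCCP 2 uM control, hits >3× summed SD above DMSO.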

Experiment [3] deals with astrocytes. The experiment is described as follows: Production of H2O2 (mitochondrial activity). The class given is cell-based. The note with it: Mus musculus, Astrocyte, 1.5 h; CDC54K hits; 0-200 uM, 90 min. How it is done: (§1) Primary cultures of cerebrocortical astrocytes were obtained from 1-2-day-old OF1 mouse pups (Charles River Laboratories). Briefly, cortices were isolated and minced in small pieces under a dissecting microscope. The cells were incubated for 30 min at 37° C. in a solution containing 20 U/ml of papain enzyme (Worthington Biochemical), L-cysteine 1 mM (Sigma), and 10 kU/ml DNase I (Worthington Biochemical) for an enzymatic dissociation. Papain activity was stopped by the addition of fetal calf serum (FCS) to the solution, and a single-cell suspension was then obtained by mechanical dissociation, which consisted in cells trituration in a DMEM (D7777, Sigma-Aldrich) medium (supplemented with 44 mm NaHCO3, and 10 ml/L antibiotic/antimycotic solution) containing 10% FCS. The cells were seeded at an average density of 6×10^4 cells/cm^2 in poly-D-lysine-coated 96, 12 or 6-well culture plates, depending on their use, and incubated at 37° C. in a humidified atmosphere containing 5% CO2/95% air. Culture medium was renewed twice per week. Cells were stimulated and harvested between DIV14 and DIV17, when confluence and cell growth were optimal.
Hydrogene peroxide (H2O2) released in the supernatant is detected enzymatically with Amplex red (Zhou, Diwu et al. 1997). Oxidation of Amplex red is catalysed by the horseradish peroxidase in presence of H2O2 into highly fluorescent resorufin. Fluorescence measure is read at 545 nm extinction, 590 nm emission. The amount of H2O2 was expressed relatively to the proteins content extracted from the cells in culture. […]
Mitochondrial respiration in astrocytes was measured through production of H2O2 at 90 min after stimulation with CDC54K hits (ranging from 0 to 200 uM).

The test system of experiment [4] is astrocytes. Description: MTT viability assay. Type of experiment: cell-based. The note with it: Mus musculus, Astrocyte; CDC54K hits; cellular toxicity, 0-200 uM. How it is done:
as §1
For cell toxicity determination, astrocytes in 96-well plates were stimulated 24 h (37° C. 5% CO2/95% air) with a gradient ranging from 0.1 to 200 μM of tested compounds. After stimulation, 5 mg/ml thiazol blue tetrazolium bromide (MTT, Sigma-Aldrich) in warm D5030 complete medium was added to each well, and cells were incubated for 4 h at 37° C. (5% CO2). The medium was then removed by aspiration, and the reaction was stopped by the addition of 50 μl DMSO per well.
The amount of reduced MTT (formazan) solubilized in DMSO was then determined spectrophotometrically using absorbance at 570 nm (Safire 2; Tecan).
MTT cellular viability assay was performed on astrocytes exposed to molecules from the Prestwick library (Prestwick hits; concentrations ranging from 0 uM to 200 uM).
MTT cellular viability assay was performed on astrocytes exposed to CDC54K hits (concentrations ranging from 0 uM to 200 uM).
Background: Formazan colour is commonly taken as a measure of viable cells.

The mark [5] stands for this setting: 1.5 h, CDC54K hits, 0-100 uM, 90 min, read-out: Lactate EC50.
Setting [6] is: Appendix I, primary screening, relative to positive control.
The mark [7] stands for this setting: CDC54K hits, relative to positive control CCCP 2 uM.
Where [8] appears, read: Appendix I, primary screening, relative to positive control, read-out: Score.
Where [9] appears, read: CDC54K hits, relative to positive control CCCP 2 uM, read-out: HTS Score (SNARF5).

For orientation: EC50 means the concentration that produces a half-maximal response. The IC50 is the concentration that gives 50% inhibition. In experiment [1], `Cc1nc2ccc(NS(=O)(=O)c3cccc(F)c3)cc2s1` [T6937001] returned a Score_LACTATE of 0.9088. Further, the EC50 in experiment [1] (setting [5]) stood at 11.5 µM. In experiment [2] (Appendix I), the Score_SNARF was 0.8557. The compound also came in with a Score in experiment [2] (setting [6]) of 0.8094. The “HTS Score (SNARF5)” value in experiment [2] (setting [7]) was 0.809. In addition, the IC50 in experiment [3] and in experiment [4] was more than 200 µM throughout.
As to `O=S(=O)(Nc1cc(F)cc(F)c1)c1ccc2ccccc2c1` [T5884038], the EC50 in experiment [1] (setting [5]) was found to be 12.2 µM. Besides, the Emax at 10 µM in experiment [2] (setting [8]) and in experiment [2] (setting [9]) was 72.1% in each case. For the same compound, the IC50 in experiment [3] was more than 200 µM; in experiment [4], 70.5 µM.
On to `COc1ccc(Nc2nc(N3CCOCC3)c3ccccc3n2)cc1.Cl` [T0508-5190], for which the EC50 in experiment [1] (setting [5]) amounted to 3.1 µM. Besides, the Emax at 10 µM in experiment [2] (setting [8]) and in experiment [2] (setting [9]) was 45.9% in each case. Further, the IC50 in experiment [3] amounted to 185 µM; in experiment [4], 75 µM.
As to `N#Cc1ccc(C(=O)N2CCC(Nc3ncnc4c3CCC4)C2)cc1` (stereo not shown) [T636-2387], the “Score Lact.” value in experiment [1] (Appendix II) worked out at 0.30. Moreover, the EC50 stood at 11.5 µM in experiment [1] (setting [5]) and 6.83 µM in experiment [1] (Appendix II, lactate secretion, read-out: EC50). The “HTS Score (SNARF5)” value in experiment [2] (setting [7]) was determined as 0.445. Also, in experiment [2] (setting [8]), the Emax at 10 µM turned out to be 44.5%. Also, the IC50 in experiment [3] and in experiment [4] was more than 200 µM in each case.
As to `O=C1CCCN1c1ccc(S(=O)(=O)Nc2cccc(/C=C/c3ccccn3)c2)cc1` [T5644989], the Score_LACTATE in experiment [1] is listed as 0.7859. Moreover, in experiment [1] (setting [5]), the EC50 turned out to be 7.9 µM. This compound also came in with a Score_SNARF in experiment [2] (Appendix I) of 0.8385. This compound also yielded a Score in experiment [2] (setting [6]) of 0.6796. The “HTS Score (SNARF5)” value in experiment [2] (setting [7]) came to 0.68. Moreover, the IC50 in experiment [3] and in experiment [4] was more than 200 µM each time.
`CC(=O)N1CCc2sc(S(=O)(=O)N3CCN(c4ccccc4C)CC3)cc2C1` [P025-0159] had a Score_LACTATE in experiment [1] of 0.9232. Also, the EC50 in experiment [1] (setting [5]) turned out to be 8.7 µM. For the same compound, the Score_SNARF in experiment [2] (Appendix I) is reported as 0.8007. The compound also gave a Score in experiment [2] (setting [6]) of 0.9535. For the same compound, the “HTS Score (SNARF5)” value in experiment [2] (setting [7]) amounted to 0.953. Moreover, the IC50 in experiment [3] and in experiment [4] was more than 200 µM in each case.
`c1ccc2c(c1)CCN(c1ncnc3sccc13)C2` [T0517-8250]: the half-maximal effective concentration (EC50) in experiment [1] (setting [5]) worked out at 3 µM. In addition, the Emax at 10 µM in experiment [2] (setting [8]) and in experiment [2] (setting [9]) was 95.7% each time. The IC50 in experiment [3] was more than 200 µM; in experiment [4], 140 µM.
In turn, `CCc1nc(-c2csc(S(=O)(=O)NCc3ccc4c(c3)OCO4)c2)no1` [L287-0468] came in with a Score_LACTATE in experiment [1] of 0.6179. For the same compound, the EC50 in experiment [1] (setting [5]) stood at 7.9 µM. For the same compound, in experiment [2] (Appendix I), the Score_SNARF came out at 0.6592. In experiment [2] (setting [6]), the Score turned out to be 0.5971. Moreover, the “HTS Score (SNARF5)” value in experiment [2] (setting [7]) worked out at 0.597. In addition, the IC50 in experiment [3] and in experiment [4] was more than 200 µM in each case.
Consider `COc1cc(C)c(Cl)cc1S(=O)(=O)NCc1ccncc1` [T5580243], for which the Score_LACTATE in experiment [1] was determined as 0.7229. In addition, in experiment [1] (setting [5]), the EC50 is 11 µM. The compound also gave a Score_SNARF in experiment [2] (Appendix I) of 0.8565. Besides, the Score in experiment [2] (setting [6]) is recorded as 0.8528. Besides, the “HTS Score (SNARF5)” value in experiment [2] (setting [7]) came to 0.853. For the same compound, the IC50 in experiment [3] and in experiment [4] was more than 200 µM each time.
As for `Cc1ccccc1NC(=O)C1CCCN(c2ncnc3oc(C)c(C)c23)C1` (stereo not shown) [F228-0422], in experiment [1], the Score_LACTATE is reported as 0.6364. Besides, in experiment [1] (setting [5]), the EC50 stood at 0.5 µM. Also, the Score_SNARF in experiment [2] (Appendix I) came out at 0.7702. This compound gave a Score in experiment [2] (setting [6]) of 1.057. Also, the “HTS Score (SNARF5)” value in experiment [2] (setting [7]) amounted to 1.058. The IC50 in experiment [3] and in experiment [4] was more than 200 µM in each case.
Take `COc1ccccc1[N+]1=C2CCCCCN2C(O)(c2ccc(C)cc2)C1` (stereo not shown) [K404-0834]: in experiment [1] (setting [5]), the EC50 turned out to be 1.8 µM. For the same compound, the Emax at 10 µM in experiment [2] (setting [8]) and in experiment [2] (setting [9]) was 112% each time. For the same compound, the IC50 in experiment [3] was more than 200 µM; in experiment [4] it was 150 µM.
`CCn1nccc1-c1csc(S(=O)(=O)Nc2ccc(Cl)cc2F)c1` [L924-1031] yielded a Score_LACTATE in experiment [1] of 1.632. Further, in experiment [1] (setting [5]), the EC50 was found to be 25.3 µM. The compound also came in with a Score_SNARF in experiment [2] (Appendix I) of 0.8713. This compound had a Score in experiment [2] (setting [6]) of 0.9286. The “HTS Score (SNARF5)” value in experiment [2] (setting [7]) is 0.929. Besides, the IC50 in experiment [3] is 48.6 µM; in experiment [4], more than 200 µM.

Source of the values: US12274703B2, “Compositions and methods of treatment for neurological disorders comprising a dementia” (Gliapharm SA, priority 2017, dated 2025).
